For orientation: IC50 means the midpoint of a concentration-inhibition curve.

Molecules are shown by their SMILES.

For this assay, the target named is T1, binding of KRAS^G12C to SOS1 (Homo sapiens, UniProt Q07889).
T1 construct: Tag1 (unspecified)
T1 sequence (Q07889 1-1333): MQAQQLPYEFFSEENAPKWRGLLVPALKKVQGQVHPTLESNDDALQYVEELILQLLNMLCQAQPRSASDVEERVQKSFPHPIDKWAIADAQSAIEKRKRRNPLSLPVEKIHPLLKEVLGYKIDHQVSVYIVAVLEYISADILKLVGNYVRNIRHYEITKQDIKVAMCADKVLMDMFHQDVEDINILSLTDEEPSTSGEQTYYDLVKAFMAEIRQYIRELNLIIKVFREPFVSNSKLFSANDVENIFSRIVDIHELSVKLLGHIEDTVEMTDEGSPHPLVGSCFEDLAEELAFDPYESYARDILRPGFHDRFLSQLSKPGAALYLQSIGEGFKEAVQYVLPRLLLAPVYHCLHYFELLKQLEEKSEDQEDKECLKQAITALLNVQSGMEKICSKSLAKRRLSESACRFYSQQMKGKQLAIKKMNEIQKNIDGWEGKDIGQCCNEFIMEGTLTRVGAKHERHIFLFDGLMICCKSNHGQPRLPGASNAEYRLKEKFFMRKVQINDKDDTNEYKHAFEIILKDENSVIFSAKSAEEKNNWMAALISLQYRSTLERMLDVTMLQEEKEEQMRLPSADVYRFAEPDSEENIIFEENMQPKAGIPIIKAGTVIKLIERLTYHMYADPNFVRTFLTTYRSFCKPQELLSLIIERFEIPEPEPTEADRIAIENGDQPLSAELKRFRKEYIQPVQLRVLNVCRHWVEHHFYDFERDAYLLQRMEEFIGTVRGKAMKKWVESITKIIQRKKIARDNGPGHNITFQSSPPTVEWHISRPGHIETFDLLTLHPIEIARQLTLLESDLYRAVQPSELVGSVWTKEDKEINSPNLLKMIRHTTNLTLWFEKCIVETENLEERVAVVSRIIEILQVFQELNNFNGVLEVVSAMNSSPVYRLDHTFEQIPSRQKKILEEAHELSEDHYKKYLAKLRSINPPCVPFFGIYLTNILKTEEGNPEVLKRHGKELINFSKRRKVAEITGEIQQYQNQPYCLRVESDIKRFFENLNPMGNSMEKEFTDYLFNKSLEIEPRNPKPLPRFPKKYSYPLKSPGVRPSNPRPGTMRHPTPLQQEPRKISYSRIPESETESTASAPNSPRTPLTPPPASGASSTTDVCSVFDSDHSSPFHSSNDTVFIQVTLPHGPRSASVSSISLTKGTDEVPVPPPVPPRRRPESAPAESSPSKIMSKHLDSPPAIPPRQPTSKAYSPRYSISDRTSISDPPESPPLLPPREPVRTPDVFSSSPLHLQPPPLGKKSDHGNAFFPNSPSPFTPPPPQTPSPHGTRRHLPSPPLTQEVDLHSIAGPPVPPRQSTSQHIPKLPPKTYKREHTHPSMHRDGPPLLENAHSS
Put plainly: Inhibition of the binding of KRAS^G12C to SOS1. The note with it: Tag1-SOS1 / Tag2-KRAS^G12C, 2 h incubation at room temperature; read-out: IC50 (nM), inhibitory activity on the binding of KRAS^G12C to SOS1. How it is done:
• (1) Gradient dilution of the test compounds: 10 mM mother solution (dissolved in 100% DMSO) was added to a 384-well test plate, the final content of DMSO being 0.25%.
(2) 5 μL of Tag1-SOS1 solution was added to the test plate, and 5 μL of dilution buffer was added to the control group.
(3) 5 μL of Tag2-KRAS^G12C solution was added to the test plate.
(4) 10 μL of Anti-Tag1-Tb3+ and Anti-Tag2-XL665 detection solution were added to the test plate. The plate was centrifuged at 1000 rpm for 1 min and incubated at room temperature for 2 h.
(6) The IC50 values for the compounds were finally calculated using GraphPad Prism software, and a curve was fit and plotted.
The inhibitory activity of the compounds of the examples of the present invention on the binding of KRAS^G12C enzyme to SOS1 is shown in Table 1.
Regarding `COc1cc2nc(C)nc(N[C@H](C)c3cccc(C(F)(F)C(C)(C)O)c3F)c2cc1OCCN(C)S(C)(=O)=O` [Example 33, (R)—N-(2-((4-((1-(3-(1,1-Difluoro-2-hydroxy-2-methylpropyl)-2-fluorophenyl)ethyl)amino)-7-methoxy-2-methylquinazolin-6-yl)oxy)ethyl)-N-methylmethanesulfonamide], the half-maximal inhibitory concentration (IC50) worked out at 7.5 nM.
With `COc1cc2nc(C)nc(N[C@H](C)c3cc(N)cc(C(F)(F)F)c3)c2cc1OCC1(N(C)C)CC1` [Example 34, (R)—N-(1-(3-Amino-5-(trifluoromethyl)phenyl)ethyl)-6-((1-(dimethylamino)cyclopropyl)methoxy)-7-methoxy-2-methylquinazolin-4-amine], the IC50 stood at 5.4 nM.
As for `COc1cc2nc(C)nc(N[C@H](C)c3cc(N)cc(C(F)(F)F)c3F)c2cc1OCCOC1CC1` [Example 35, (R)—N-(1-(5-Amino-2-fluoro-3-(trifluoromethyl)phenyl)ethyl)-6-(2-cyclopropoxyethyloxy)-7-methoxy-2-methylquinazolin-4-amine], the IC50 turned out to be 17 nM.
Next, `COc1cc2nc(C)nc(N[C@H](C)c3cc(C(F)(F)F)ccn3)c2cc1OCCOC1CC1` [Example 36, (R)-6-(2-Cyclopropoxyethyloxy)-7-methoxy-2-methyl-N-(1-(4-(trifluoromethyl)pyridin-2-yl)ethyl)quinazolin-4-amine]: over 1000 nM; `COc1cc2nc(C)nc(N[C@H](C)c3cc(C(F)(F)F)cc(N)n3)c2cc1OCCOC1CC1` [Example 38, (R)—N-(1-(6-Amino-4-(trifluoromethyl)pyridin-2-yl)ethyl)-6-(2-cyclopropoxyethyloxy)-7-m ethoxy-2-methylquinazolin-4-amine]: 33 nM; `COc1cc2nc(C)nc(N[C@H](C)c3cc(N)cc(C(F)(F)F)c3)c2cc1OC[C@@H]1CCCO1` [Example 39, N—((R)-1-(3-Amino-5-(trifluoromethyl)phenyl)ethyl)-7-methoxy-2-methyl-6-(((S)-tetrahydrofuran-2-yl)methoxy)quinazolin-4-amine]: 21 nM.
On to `COc1cc2nc(C)nc(N[C@H](C)c3cc(N)cc(C(F)(F)F)c3)c2cc1OC[C@H]1CCCO1` [Example 40, N—((R)-1-(3-Amino-5-(trifluoromethyl)phenyl)ethyl)-7-methoxy-2-methyl-6-(((R)-tetrahydrofuran-2-yl)methoxy)quinazolin-4-amine], for which the IC50 was 8.2 nM.
In the case of `COc1cc2nc(C)nc(N[C@H](C)c3cc(N)nc(C(F)(F)F)c3)c2cc1OCCOC1CC1` [Example 41, (R)—N-(1-(2-Amino-6-(trifluoromethyl)pyridin-4-yl)ethyl)-6-(2-cyclopropoxyethoxy)-7-met hoxy-2-methylquinazolin-4-amine], the half-inhibitory concentration (IC50) came out at 252 nM.
For the compound `COCCOc1cc2c(N[C@H](C)c3cc(N)cc(C(F)(F)F)c3)nc(C)nc2cc1OC` [Example 42, (R)—N-(1-(3-Amino-5-(trifluoromethyl)phenyl)ethyl)-7-methoxy-6-(2-methoxyethoxy)-2-me thylquinazolin-4-amine], the IC50 was determined as 5.6 nM.
As to `COCC1(COc2cc3c(N[C@H](C)c4cc(N)cc(C(F)(F)F)c4)nc(C)nc3cc2OC)COC1` [Example 43, (R)—N-(1-(3-Amino-5-(trifluoromethyl)phenyl)ethyl)-7-methoxy-6-((3-(methoxymethyl)oxetan-3-yl)methoxy)-2-methylquinazolin-4-amine], the IC50 came out at 5.2 nM.
Regarding `Cc1nc(N[C@H](C)c2cc(N)cc(C(F)(F)F)c2)c2cc(OCCOC3CC3)c(C(F)(F)F)cc2n1` [Example 45, (R)—N-(1-(3-Amino-5-(trifluoromethyl)phenyl)ethyl)-6-(2-cyclopropoxyethoxy)-2-methyl-7-(trifluoromethyl)quinazolin-4-amine], the IC50 was found to be 167 nM.
In the case of `COc1cc2nc(C)nc(N[C@H](C)c3cc(N)cc(C(F)(F)F)c3)c2cc1OCC1(OC)CC1` [Example 46, (R)—N-(1-(3-Amino-5-(trifluoromethyl)phenyl)ethyl)-7-methoxy-6-((1-methoxycyclopropyl)methoxy)-2-methylquinazolin-4-amine], the half-inhibitory concentration (IC50) amounted to 10 nM.
As to `COc1cc2nc(C)nc(N[C@H](C)c3cc(N)cc(C(F)(F)F)c3)c2cc1OC[C@H](C)OC` [Example 47], the 50% inhibitory concentration (IC50) was 7.4 nM.
In the case of `COc1cc2nc(C)nc(N[C@H](C)c3cc(N)cc(C(F)(F)F)c3)c2cc1OCCOC1CCC1` [Example 49, (R)—N-(1-(3-Amino-5-(trifluoromethyl)phenyl)ethyl)-6-(2-cyclobutoxyethoxy)-7-methoxy-2-methylquinazolin-4-amine] it was 4.6 nM; in that of `COCCOCCOc1cc2c(N[C@H](C)c3cc(N)cc(C(F)(F)F)c3)nc(C)nc2cc1OC` [Example 50, (R)—N-(1-(3-Amino-5-(trifluoromethyl)phenyl)ethyl)-7-methoxy-6-(2-(2-methoxyethoxy)ethoxy)-2-methylquinazolin-4-amine], 4.2 nM.
For the compound `COCCOc1cc2c(N[C@H](C)c3cc(C(F)(F)F)cc(N)n3)nc(C)nc2cc1OC` [Example 51, (R)—N-(1-(6-Amino-4-(trifluoromethyl)pyridin-2-yl)ethyl)-7-methoxy-6-(2-methoxyethoxy)-2-methylquinazolin-4-amine], the IC50 is 24 nM.
In the case of `COCCOc1cc2c(N[C@H](C)c3cc(N)cc(C(F)(F)F)n3)nc(C)nc2cc1OC` [Example 52, (R)—N-(1-(4-Amino-6-(trifluoromethyl)pyridin-2-yl)ethyl)-7-methoxy-6-(2-methoxyethoxy)-2-methylquinazolin-4-amine] it was 31 nM; in that of `COc1cc2nc(C)nc(N[C@H](C)c3cc(N)cc(C(F)(F)F)c3)c2cc1OCCCOC1CC1` [Example 53, (R)—N-(1-(3-Amino-5-(trifluoromethyl)phenyl)ethyl)-6-(3-cyclopropoxypropoxy)-7-methox y-2-methylquinazolin-4-amine], 3.7 nM.
Turning to `CNCC1(COc2cc3c(N[C@H](C)c4cccc(C(F)(F)F)c4F)nc(C)nc3cc2OC)CC1` [Example 54, (R)—N-(1-(2-Fluoro-3-(trifluoromethyl)phenyl)ethyl)-7-methoxy-2-methyl-6-((1-((methylamino)methyl)cyclopropyl)methoxy)quinazolin-4-amine], the IC50 worked out at 15 nM.
Consider `COc1cc2nc(C)nc(N[C@H](C)c3cccc(C(F)(F)F)c3F)c2cc1OCC1(CO)CC1` [Example 55, (R)-(1-(((4-((1-(2-Fluoro-3-(trifluoromethyl)phenyl)ethyl)amino)-7-methoxy-2-methylquinazolin-6-yl)oxy)methyl)cyclopropyl)methanol], for which the IC50 was determined as 16 nM.
In the case of `COCC1(COc2cc3c(N[C@H](C)c4cc(N)cc(C(F)(F)F)c4)nc(C)nc3cc2OC)CC1` [Example 56, (R)—N-(1-(3-Amino-5-(trifluoromethyl)phenyl)ethyl)-7-methoxy-6-((1-(methoxymethyl)cyclopropyl)methoxy)-2-methylquinazolin-4-amine] it was 9.6 nM; in that of `[2H]C([2H])([2H])OCCOc1cc2c(N[C@H](C)c3cc(N)cc(C(F)(F)F)c3)nc(C)nc2cc1OC` [Example 57, (R)—N-(1-(3-Amino-5-(trifluoromethyl)phenyl)ethyl)-7-methoxy-6-(2-(methoxy-d3)ethoxy)-2-methylquinazolin-4-amine], 5.2 nM.

Source of the values: US20240336606A1 (Suzhou Zelgen Biopharmaceuticals Co., Ltd., priority 2020, published 2024).
